The values that follow come from US8541418B2, “Inhibitors of polo-like kinase” (Elan Pharmaceutical, Inc., priority 2009, dated 2013).

Holding throughout (format): biochemical
In one assay the target is PLK2 (Homo sapiens, UniProt Q9NYY3). Description: PLK TR-FRET peptide assay, PLK2. The following applies: for IC50: PLK TR-FRET peptide assay, read-out: Plk2 IC50; for relative PLK2 activity of the enantiomers: compared with the opposite enantiomer.
In the next assay the target is PLK1 (Homo sapiens, UniProt P53350). Description: PLK TR-FRET peptide assay, PLK1. (TR-FRET usually uses a lanthanide donor and a delayed reading to cut background.)
For another assay, the target named is PLK3 (Homo sapiens, UniProt Q9H4B4). In words: PLK TR-FRET peptide assay, PLK3.
Where [1] appears, read: GST-PLK3, 15 min reaction, read-out: Plk3 IC50.

Like-named read-outs stand apart in the source and are kept apart here. A value given as a limit tells only on which side of the number the result lay.

Chain of PLK1 (P53350 whole entry): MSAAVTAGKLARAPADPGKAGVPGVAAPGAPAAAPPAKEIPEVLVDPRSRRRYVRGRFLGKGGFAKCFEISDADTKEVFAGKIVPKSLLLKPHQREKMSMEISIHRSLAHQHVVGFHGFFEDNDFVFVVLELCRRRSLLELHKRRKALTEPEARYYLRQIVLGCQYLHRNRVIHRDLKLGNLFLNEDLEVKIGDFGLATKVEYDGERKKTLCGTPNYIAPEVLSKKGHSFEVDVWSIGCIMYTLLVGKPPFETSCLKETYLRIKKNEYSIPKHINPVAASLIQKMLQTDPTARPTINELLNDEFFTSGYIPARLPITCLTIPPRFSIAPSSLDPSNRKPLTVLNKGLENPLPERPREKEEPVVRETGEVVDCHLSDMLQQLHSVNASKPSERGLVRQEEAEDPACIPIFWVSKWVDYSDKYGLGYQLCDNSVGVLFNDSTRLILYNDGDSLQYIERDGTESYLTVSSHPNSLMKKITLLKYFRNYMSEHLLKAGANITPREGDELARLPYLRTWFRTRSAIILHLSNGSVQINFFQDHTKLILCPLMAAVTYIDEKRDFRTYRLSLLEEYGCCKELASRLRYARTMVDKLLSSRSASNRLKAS
Chain of PLK2 (Q9NYY3 whole entry): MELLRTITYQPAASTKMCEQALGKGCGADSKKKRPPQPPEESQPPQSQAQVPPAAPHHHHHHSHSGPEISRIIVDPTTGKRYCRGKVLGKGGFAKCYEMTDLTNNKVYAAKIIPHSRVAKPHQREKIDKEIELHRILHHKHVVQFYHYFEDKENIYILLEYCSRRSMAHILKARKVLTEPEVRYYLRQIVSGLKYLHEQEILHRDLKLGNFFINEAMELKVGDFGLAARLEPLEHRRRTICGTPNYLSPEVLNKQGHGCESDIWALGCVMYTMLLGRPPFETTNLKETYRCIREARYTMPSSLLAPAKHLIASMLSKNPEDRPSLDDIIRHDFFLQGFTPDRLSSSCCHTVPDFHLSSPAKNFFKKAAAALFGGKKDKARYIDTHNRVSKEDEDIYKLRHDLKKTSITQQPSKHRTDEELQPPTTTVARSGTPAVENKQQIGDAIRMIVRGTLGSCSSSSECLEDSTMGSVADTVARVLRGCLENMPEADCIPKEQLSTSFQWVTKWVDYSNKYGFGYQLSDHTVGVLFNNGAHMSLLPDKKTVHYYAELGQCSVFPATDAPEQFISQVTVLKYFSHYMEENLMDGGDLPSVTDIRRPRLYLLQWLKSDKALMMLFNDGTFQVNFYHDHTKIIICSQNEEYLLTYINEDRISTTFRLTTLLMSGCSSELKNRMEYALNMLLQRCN
Chain of PLK3 (Q9H4B4 whole entry): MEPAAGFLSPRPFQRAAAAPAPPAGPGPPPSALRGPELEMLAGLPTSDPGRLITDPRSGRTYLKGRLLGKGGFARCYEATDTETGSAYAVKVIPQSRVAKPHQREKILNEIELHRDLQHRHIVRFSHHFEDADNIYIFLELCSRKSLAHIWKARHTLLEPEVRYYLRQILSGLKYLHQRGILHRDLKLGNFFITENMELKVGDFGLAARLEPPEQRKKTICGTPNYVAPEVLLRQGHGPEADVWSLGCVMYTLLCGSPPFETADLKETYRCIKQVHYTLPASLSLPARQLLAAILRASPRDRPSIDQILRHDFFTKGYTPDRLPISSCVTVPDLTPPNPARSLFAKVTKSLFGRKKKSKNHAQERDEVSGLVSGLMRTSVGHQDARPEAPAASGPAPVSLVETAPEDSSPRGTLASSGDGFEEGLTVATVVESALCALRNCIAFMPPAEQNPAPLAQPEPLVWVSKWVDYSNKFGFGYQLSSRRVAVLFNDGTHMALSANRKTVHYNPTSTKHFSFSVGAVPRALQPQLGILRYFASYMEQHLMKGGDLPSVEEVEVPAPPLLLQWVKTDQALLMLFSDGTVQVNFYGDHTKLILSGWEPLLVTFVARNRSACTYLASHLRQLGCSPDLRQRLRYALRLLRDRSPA

Turning to `CC[C@@H]1C(=O)N(C)c2cnc(-c3ccncc3NC(=O)OC(C)(C)C)nc2N1C1CCCC1` [Example 92, (R)-tert-butyl 4-(8-cyclopentyl-7-ethyl-5-methyl-6-oxo-5,6,7,8-tetrahydropteridin-2-yl)pyridin-3-ylcarbamate], the IC50 at PLK2 (GST-PLK2, 60 min reaction) is 1 to 10 µM; on PLK1 (GST-PLK1, 60 min reaction), 10 to 50 µM; on PLK3 (setting [1]) it was above 50 µM.
Regarding `CC[C@H]1C(=O)N(C)c2cnc(-c3cnsc3-c3ccc(F)cc3)nc2N1c1cccc(C#N)c1` [Example 392, (S)-3-(7-ethyl-2-(5-(4-fluorophenyl)isothiazol-4-yl)-5-methyl-6-oxo-6,7-dihydropteridin-8(5H)-yl)benzonitrile], the IC50 on PLK2 (GST-PLK2) was above 50 µM; against PLK1 (GST-PLK1), above 50 µM; on PLK3 (GST-PLK3, read-out: Plk3 IC50) it was above 50 µM.
Regarding `CN1C(=O)[C@H]2CCCN2c2nc(-n3ccnc3)ncc21` [Example 33, (R)-2-(1H-imidazol-1-yl)-5-methyl-6a,7,8,9-tetrahydropyrrolo[2,1-h]pteridin-6(5H)-one], the IC50 on PLK2 (GST-PLK2, 60 min reaction) is 10 to 50 µM; against PLK1 (GST-PLK1, 60 min reaction) it was above 50 µM; on PLK3 (setting [1]) it was above 50 µM.
`CC[C@@H]1C(=O)N(C)c2cnc(-n3ccnc3-c3ccc(C(F)(F)F)cc3)nc2N1C(C)C` [Example 166, (R)-7-ethyl-8-isopropyl-5-methyl-2-(2-(4-(trifluoromethyl)phenyl)-1H-imidazol-1-yl)-7,8-dihydropteridin-6(5H)-one]: the IC50 is below 1 µM on PLK2 (GST-PLK2, 60 min reaction); 1 to 10 µM on PLK1 (GST-PLK1, 60 min reaction); 10 to 50 µM at PLK3 (setting [1]).
As for `CC[C@@]12CCCCN1c1nc(-n3ccnc3-c3cccc(F)c3)ncc1N(C)C2=O` [Example 264, (S)-6a-ethyl-2-(2-(3-fluorophenyl)-1H-imidazol-1-yl)-5-methyl-7,8,9,10-tetrahydro-5H-pyrido[2,1-h]pteridin-6(6aH)-one], the IC50 at PLK2 (GST-PLK2, 60 min reaction) was below 1 µM; at PLK1 (GST-PLK1, 60 min reaction), 1 to 10 µM; at PLK3 (setting [1]), 10 to 50 µM. The “relative PLK2 activity of the enantiomers” value (“relative PLK2 activity” for short) at PLK2 is “more active compound”.
Consider `CN1C(=O)C2(CC(F)(F)F)CCCN2c2nc(-n3ccnc3)ncc21` (stereo not drawn) [Example 329, 2-(1H-imidazol-1-yl)-5-methyl-6a-(2,2,2-trifluoroethyl)-6a,7,8,9-tetrahydropyrrolo[2,1-h]pteridin-6(5H)-one], for which the IC50 at PLK2 (GST-PLK2, 60 min reaction) was 10 to 50 µM; on PLK1 (GST-PLK1, 60 min reaction) it was 10 to 50 µM; on PLK3 (setting [1]), 10 to 50 µM.
Turning to `CC[C@@H]1C(=O)Nc2cnc(-n3cccn3)nc2N1C1CCCC1` [Example 29, (R)-8-cyclopentyl-7-ethyl-2-(1H-pyrazol-1-yl)-7,8-dihydropteridin-6(5H)-one], the IC50 on PLK2 (GST-PLK2, 60 min reaction) is above 50 µM; against PLK1 (GST-PLK1, 60 min reaction) it was above 50 µM; at PLK3 (setting [1]), above 50 µM.
Take `CC[C@@H]1C(=O)N(C)c2cnc(-n3ccnc3-c3nccc4ccccc34)nc2N1C(C)C` [Example 196, (R)-7-ethyl-8-isopropyl-2-(2-(isoquinolin-1-yl)-1H-imidazol-1-yl)-5-methyl-7,8-dihydropteridin-6(5H)-one]: the IC50 at PLK2 (GST-PLK2, 60 min reaction) is 1 to 10 µM; against PLK1 (GST-PLK1, 60 min reaction), 10 to 50 µM; on PLK3 (setting [1]), above 50 µM.
Regarding `CN1C(=O)[C@@H](CC(F)(F)F)N(CCC(F)(F)F)c2nc(-n3ccnc3)ncc21` [Example 301, (R)-2-(1H-imidazol-1-yl)-5-methyl-7-(2,2,2-trifluoroethyl)-8-(3,3,3-trifluoropropyl)-7,8-dihydropteridin-6(5H)-one], the IC50 was below 1 µM on PLK2 (GST-PLK2, 60 min reaction); 10 to 50 µM at PLK1 (GST-PLK1, 60 min reaction); 10 to 50 µM on PLK3 (setting [1]). The “relative PLK2 activity” value at PLK2 is on record as “more active compound”.
`CC[C@@H]1C(=O)N(C)c2cnc(-c3cncs3)nc2N1C1CCCC1` [Example 355, (R)-8-cyclopentyl-7-ethyl-5-methyl-2-(thiazol-5-yl)-7,8-dihydropteridin-6(5H)-one]: the half-maximal inhibitory concentration (IC50) is below 1 µM at PLK2 (GST-PLK2, 60 min reaction); below 1 µM against PLK1 (GST-PLK1, 60 min reaction); 1 to 10 µM on PLK3 (setting [1]).
For the compound `CC[C@@H]1C(=O)N(C)c2cnc(-c3ccncc3CNC(C)=O)nc2N1C1CCCC1` [Example 122, (R)—N-((4-(8-cyclopentyl-7-ethyl-5-methyl-6-oxo-5,6,7,8-tetrahydropteridin-2-yl)pyridin-3-yl)methyl)acetamide], the IC50 lay within 1 to 10 µM at PLK2 (GST-PLK2, 60 min reaction); 10 to 50 µM against PLK1 (GST-PLK1, 60 min reaction); 10 to 50 µM at PLK3 (setting [1]).
As for `CC[C@@H]1C(=O)N(C)c2cnc(-c3cnsc3-c3ccc(F)cc3)nc2N1c1cccc(C#N)c1` [Example 391, (R)-3-(7-ethyl-2-(5-(4-fluorophenyl)isothiazol-4-yl)-5-methyl-6-oxo-6,7-dihydropteridin-8(5H)-yl)benzonitrile], the half-inhibitory concentration (IC50) on PLK2 (GST-PLK2) is below 1 µM; against PLK1 (GST-PLK1), below 1 µM; at PLK3 (GST-PLK3, read-out: Plk3 IC50), below 1 µM. On PLK2, the “relative PLK2 activity” value is “more active compound”.
Consider `CC[C@@H]1C(=O)N(C)c2cnc(-n3ccnc3-c3cc(Cl)cc(Cl)c3)nc2N1C(C)C` [Example 185, (R)-2-(2-(3,5-dichlorophenyl)-1H-imidazol-1-yl)-7-ethyl-8-isopropyl-5-methyl-7,8-dihydropteridin-6(5H)-one], for which the IC50 at PLK2 (GST-PLK2, 60 min reaction) was below 1 µM; at PLK1 (GST-PLK1, 60 min reaction) it was 1 to 10 µM; on PLK3 (setting [1]) it was 1 to 10 µM.
With `CCC1C(=O)N(C)c2cnc(-c3cnsc3-c3ccc(F)cc3)nc2N1c1cccc(C#N)c1` (racemic) [Example 401, 3-(7-ethyl-2-(5-(4-fluorophenyl)isothiazol-4-yl)-5-methyl-6-oxo-6,7-dihydropteridin-8(5H)-yl)benzonitrile], the IC50 on PLK2 (GST-PLK2) is below 1 µM; on PLK1 (GST-PLK1) it was 1 to 10 µM; at PLK3 (GST-PLK3, read-out: Plk3 IC50), 1 to 10 µM.
Turning to `CC[C@@H]1C(=O)N(C)c2cnc(-n3ccnc3-c3nccs3)nc2N1C1CCCC1` [Example 74, (R)-8-cyclopentyl-7-ethyl-5-methyl-2-(2-(thiazol-2-yl)-1H-imidazol-1-yl)-7,8-dihydropteridin-6(5H)-one], the IC50 at PLK2 (GST-PLK2, 60 min reaction) was below 1 µM; on PLK1 (GST-PLK1, 60 min reaction) it was below 1 µM; at PLK3 (setting [1]), below 1 µM.
Take `CC[C@@H]1C(=O)N(C)c2cnc(-c3nccnc3-c3ccc(F)cc3)nc2N1C(C)C` [Example 177, (R)-7-ethyl-2-(3-(4-fluorophenyl)pyrazin-2-yl)-8-isopropyl-5-methyl-7,8-dihydropteridin-6(5H)-one]: the IC50 on PLK2 (GST-PLK2, 60 min reaction) was below 1 µM; against PLK1 (GST-PLK1, 60 min reaction), 1 to 10 µM; on PLK3 (setting [1]), 1 to 10 µM.
Turning to `CC[C@@H]1C(=O)N(C)c2cnc(-c3ccncc3CNC(=O)OC)nc2N1C(C)C` [Example 128, (R)-methyl (4-(7-ethyl-8-isopropyl-5-methyl-6-oxo-5,6,7,8-tetrahydropteridin-2-yl)pyridin-3-yl)methylcarbamate], the IC50 lay in the range of 1 to 10 µM at PLK2 (GST-PLK2, 60 min reaction); 10 to 50 µM against PLK1 (GST-PLK1, 60 min reaction); 10 to 50 µM on PLK3 (setting [1]).
On to `[2H]C([2H])([2H])N1C(=O)[C@H](C([2H])([2H])C([2H])([2H])[2H])N(C([2H])(C([2H])([2H])[2H])C([2H])([2H])[2H])c2nc(-n3ccnc3-c3cc(F)cc(F)c3)ncc21` [Example 178, (S)-2-(2-(3,5-difluorophenyl)-1H-imidazol-1-yl)-7-perdeuteroethyl-8-perdeuteroisopropyl-5-trideuteromethyl-7,8-dihydropteridin-6(5H)-one], for which the IC50 is 10 to 50 µM on PLK2 (GST-PLK2, 60 min reaction); above 50 µM against PLK1 (GST-PLK1, 60 min reaction); above 50 µM at PLK3 (setting [1]).
For the compound `[2H]C([2H])([2H])N1C(=O)[C@H](C([2H])([2H])C([2H])([2H])[2H])N(C([2H])(C([2H])([2H])[2H])C([2H])([2H])[2H])c2nc(-n3ccnc3-c3cccc(F)c3)ncc21` [Example 201, (S)-7-perdeuteroethyl-2-(2-(3-fluorophenyl)-1H-imidazol-1-yl)-8-perdeuteroisopropyl-5-trideuteromethyl-7,8-dihydropteridin-6(5H)-one], the IC50 was 1 to 10 µM on PLK2 (GST-PLK2, 60 min reaction); 10 to 50 µM against PLK1 (GST-PLK1, 60 min reaction); above 50 µM on PLK3 (setting [1]).
In the case of `CN1C(=O)[C@H](CC(F)(F)F)N(CCC(F)(F)F)c2nc(-n3ccnc3)ncc21` [Example 302, (S)-2-(1H-imidazol-1-yl)-5-methyl-7-(2,2,2-trifluoroethyl)-8-(3,3,3-trifluoropropyl)-7,8-dihydropteridin-6(5H)-one], the IC50 was 10 to 50 µM on PLK2 (GST-PLK2, 60 min reaction); above 50 µM against PLK1 (GST-PLK1, 60 min reaction); above 50 µM at PLK3 (setting [1]).
On to `CC[C@@H]1C(=O)N(C)c2cnc(N3CCNC(=O)C3)nc2N1C1CCCC1` [Example 214, (R)-8-cyclopentyl-7-ethyl-5-methyl-2-(3-oxopiperazin-1-yl)-7,8-dihydropteridin-6(5H)-one], for which the IC50 at PLK2 (GST-PLK2, 60 min reaction) was 10 to 50 µM; at PLK1 (GST-PLK1, 60 min reaction), 1 to 10 µM; at PLK3 (setting [1]) it was above 50 µM.
For the compound `CC[C@@H]1C(=O)N(C)c2cnc(-n3ccnc3-c3ccc(F)c(Cl)c3)nc2N1C(C)C` [Example 186, (R)-2-(2-(3-chloro-4-fluorophenyl)-1H-imidazol-1-yl)-7-ethyl-8-isopropyl-5-methyl-7,8-dihydropteridin-6(5H)-one], the half-maximal inhibitory concentration (IC50) at PLK2 (GST-PLK2, 60 min reaction) was below 1 µM; at PLK1 (GST-PLK1, 60 min reaction), 1 to 10 µM; at PLK3 (setting [1]), 1 to 10 µM.
Consider `CC(C)N1c2nc(-n3ccnc3-c3ccccc3)ncc2N(C)C(=O)C12CCC2` [Example 289, 8′-isopropyl-5′-methyl-2′-(2-phenyl-1H-imidazol-1-yl)-5′H-Spiro[cyclobutane-1,7′-pteridin]-6′(8′H)-one], for which the IC50 at PLK2 (GST-PLK2, 60 min reaction) is below 1 µM; at PLK1 (GST-PLK1, 60 min reaction), 1 to 10 µM; at PLK3 (setting [1]), 10 to 50 µM.
For `CC[C@@]12CCCN1c1nc(-n3ccnc3)ncc1N(C)C2=O` [Example 285, (S)-6a-ethyl-2-(1H-imidazol-1-yl)-5-methyl-6a,7,8,9-tetrahydropyrrolo[2,1-h]pteridin-6(5H)-one], the IC50 on PLK2 (GST-PLK2, 60 min reaction) is 10 to 50 µM; at PLK1 (GST-PLK1, 60 min reaction) it was above 50 µM; on PLK3 (setting [1]), above 50 µM.

A word on the IC50: it is the point on the concentration scale where inhibition reaches its midpoint.
